Data from patent US20100222269A1, “IMPROVED DERIVATIVES OF AMYLIN” (priority 2007, published 2010).
pEC50: −log10 of the molar value. Like-named read-outs stand apart in the source and are kept apart here. Starred links: 1 amine or outer side, 2 acyl side, 3 side chain; linkers in the order of their positions; H or OH if unused. Positions of bridges follow the written chain, without caps; N, C: chain ends. Residues, ends and D or L forms follow the SMILES beside them. Groups on a side chain read outwards from the residue. *: point of attachment. X1 = O=C(CCCCCCCCCCCCCCCc1nnn[nH]1)NS(=O)(=O)CCCC(=O)*; C20 diacid = O=C(O)CCCCCCCCCCCCCCCCCCC(=O)*; C18 diacid = O=C(O)CCCCCCCCCCCCCCCCC(=O)*; γGlu = O=C(O)[C@H](CCC(=O)[*:2])N[*:1]; AEEA = NCCOCCOCC(=O)O

Biological target: T1, Amylin 3(a) receptor (human calcitonin receptor (CTa) with RAMP-3) (Homo sapiens, UniProt O60896+P30988)
T1 construct: expressed in transfected cells; host or cells: BHK570 (baby hamster kidney) cells, stably transfected, with CRE-luciferase reporter
Assay: Amylin luciferase assay (CRE-luciferase reporter in BHK Amylin 3(a)//CRE-luc cells)
Format: cell-based
Excerpt: It has previously been published (Poyner D R et al 2002, Pharmacological Reviews 54(2) 233-246) that activation of Amylin receptors (coexpression of Calcitonin receptor and receptor activity modifying peptides RAMPs) by Amylin leads to an increase in the intracellular concentration of cAMP. Consequently, transcription is activated at promotors containing multiple copies of the cAMP response element (CRE). It is thus possible to measure Amylin activity by use of a CRE luciferase reporter gene introduced into BHK cells also expressing an Amylin receptor.
2. Construction of an Amylin 3(a)/CRE-luc Cell Line
A BHK570 cell line stably transfected with the human calcitonin receptor (CTa) and a CRE-responsive luciferase reportergene. The cell line was further transfected with RAMP-3, using standard methods. This turns the Calcitonin receptor into an Amylin 3(a) receptor. Methotrexate, Neomycin, and Hygromycin are selection markers for luciferase, the Calcitonin receptor, and RAMP-3, respectively.
3. Amylin Luciferase Assay
To perform activity assays, BHK Amylin 3(a)//CRE-luc cells were seeded in white 96 well culture plates at a density of about 20.000 cells/well. The cells were in 100 μl growth medium (DMEM with 10% FBS, 1% Pen/Strep, 1 mM Na-pyruvate, 250 nM Methotrexate, 500 μg/ml Neomycin, and 400 μg/ml Hygromycin). After incubation overnight at 37° C. and 5% CO2, the growth medium was replaced by 50 μl/well assay medium (DMEM (without phenol red), Glumamax™, 10% FBS, and 10 mM Hepes, pH 7,4). Further, 50 μl/well of standard or sample in assay buffer were added. After 4 hours incubation at 37° C. and 5% CO2, the assay medium with standard or sample were removed and replaced by 100 μl/well PBS. Further, 100 μl/well LucLite™ was added. The plates were sealed and incubated at room temperature for 30 minutes. Finally, luminescence was measured on a TopCounter (Packard) in SPC (single photon counting) mode.

[1] = BHK570 cells with human calcitonin receptor (CTa), RAMP-3 and CRE-luciferase reporter, 4 hours incubation, read-out: Potency luciferase assay

T1 sequence (O60896 24-148): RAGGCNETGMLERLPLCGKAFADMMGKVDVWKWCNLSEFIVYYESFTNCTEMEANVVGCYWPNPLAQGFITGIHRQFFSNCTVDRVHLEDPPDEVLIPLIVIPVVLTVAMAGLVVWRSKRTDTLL
T1 sequence (P30988 25-474): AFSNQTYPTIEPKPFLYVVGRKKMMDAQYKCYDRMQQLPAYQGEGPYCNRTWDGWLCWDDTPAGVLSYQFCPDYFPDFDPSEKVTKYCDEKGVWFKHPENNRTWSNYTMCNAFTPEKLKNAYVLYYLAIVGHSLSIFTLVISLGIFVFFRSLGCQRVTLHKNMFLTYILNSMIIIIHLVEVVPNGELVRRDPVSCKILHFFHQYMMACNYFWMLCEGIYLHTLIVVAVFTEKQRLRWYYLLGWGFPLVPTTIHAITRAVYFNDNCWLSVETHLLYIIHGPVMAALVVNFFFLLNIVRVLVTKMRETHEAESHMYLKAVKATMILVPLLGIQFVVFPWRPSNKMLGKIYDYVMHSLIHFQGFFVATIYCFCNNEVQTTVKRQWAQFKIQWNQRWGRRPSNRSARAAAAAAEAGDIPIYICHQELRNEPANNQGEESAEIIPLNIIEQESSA

SMILES	pEC50 [1]	pEC50
CC[C@H](C)[C@H](NC(=O)[C@@H]1CCCN1C(=O)CNC(=O)[C@H](Cc1ccccc1)NC(=O)[C@H](CC(N)=O)NC(=O)[C@H](CC(N)=O)NC(=O)[C@H](CO)NC(=O)[C@H](CO)NC(=O)[C@H](Cc1c[nH]cn1)NC(=O)[C@@H](NC(=O)[C@H](CC(C)C)NC(=O)[C@H](Cc1ccccc1)NC(=O)[C@H](CC(N)=O)NC(=O)[C@H](C)NC(=O)[C@H](CC(C)C)NC(=O)[C@H](CCCNC(=N)N)NC(=O)[C@H](CCC(N)=O)NC(=O)[C@@H](NC(=O)[C@H](C)NC(=O)[C@@H]1CSSC[C@H](NC(=O)[C@@H](N)CCCCN)C(=O)N[C@@H](CCCCNC(=O)CCCCCCCCCCCCCCCCC(=O)O)C(=O)N[C@@H]([C@@H](C)O)C(=O)N[C@@H](C)C(=O)N[C@@H]([C@@H](C)O)C(=O)N1)[C@@H](C)O)C(C)C)C(=O)N[C@@H](CC(C)C)C(=O)N1CCC[C@H]1C(=O)N1CCC[C@H]1C(=O)N[C@H](C(=O)N[C@@H](CC(N)=O)C(=O)N[C@H](C(=O)NCC(=O)N[C@@H](CO)C(=O)N[C@@H](CC(N)=O)C(=O)N[C@H](C(=O)N[C@@H](Cc1ccc(O)cc1)C(N)=O)[C@@H](C)O)C(C)C)[C@@H](C)O [Example 2, N-epsilon3-(17-carboxyheptadecanoyl)-[Lys3]-pramlintide (1-37)] (H-KCK(C18 diacid)TATCATQRLANFLVHSSNNFGPILPPTNVGSNTY-NH2; disulfide 2-7; N-terminus and C-terminus assumed)	10.30	
CC[C@H](C)[C@H](NC(=O)[C@@H]1CCCN1C(=O)CNC(=O)[C@H](Cc1ccccc1)NC(=O)[C@H](CC(N)=O)NC(=O)[C@H](CC(N)=O)NC(=O)[C@H](CO)NC(=O)[C@H](CO)NC(=O)[C@H](Cc1c[nH]cn1)NC(=O)[C@@H](NC(=O)[C@H](CC(C)C)NC(=O)[C@H](Cc1ccccc1)NC(=O)[C@H](CC(N)=O)NC(=O)[C@H](C)NC(=O)[C@H](CC(C)C)NC(=O)[C@H](CCCNC(=N)N)NC(=O)[C@H](CCC(N)=O)NC(=O)[C@@H](NC(=O)[C@H](C)NC(=O)[C@@H]1CSSC[C@H](NC(=O)[C@@H](N)CCCCN)C(=O)N[C@@H](CCCCNC(=O)CCCCCCCCCCCCCCCCCCC(=O)O)C(=O)N[C@@H]([C@@H](C)O)C(=O)N[C@@H](C)C(=O)N[C@@H]([C@@H](C)O)C(=O)N1)[C@@H](C)O)C(C)C)C(=O)N[C@@H](CC(C)C)C(=O)N1CCC[C@H]1C(=O)N1CCC[C@H]1C(=O)N[C@H](C(=O)N[C@@H](CC(N)=O)C(=O)N[C@H](C(=O)NCC(=O)N[C@@H](CO)C(=O)N[C@@H](CC(N)=O)C(=O)N[C@H](C(=O)N[C@@H](Cc1ccc(O)cc1)C(N)=O)[C@@H](C)O)C(C)C)[C@@H](C)O [Example 14, N-epsilon3-(19-carboxynonadecanoyl)-[Lys3]-pramlintide (1-37)] (H-KCK(C20 diacid)TATCATQRLANFLVHSSNNFGPILPPTNVGSNTY-NH2; disulfide 2-7; N-terminus assumed)	10.30	
CC[C@H](C)[C@H](NC(=O)[C@@H]1CCCN1C(=O)CNC(=O)[C@H](Cc1ccccc1)NC(=O)[C@H](CC(N)=O)NC(=O)[C@H](CC(N)=O)NC(=O)[C@H](CO)NC(=O)[C@H](CO)NC(=O)[C@H](Cc1c[nH]cn1)NC(=O)[C@@H](NC(=O)[C@H](CC(C)C)NC(=O)[C@H](Cc1ccccc1)NC(=O)[C@H](CC(N)=O)NC(=O)[C@H](C)NC(=O)[C@H](CC(C)C)NC(=O)[C@H](CCCNC(=N)N)NC(=O)[C@H](CCC(N)=O)NC(=O)[C@@H](NC(=O)[C@H](C)NC(=O)[C@@H]1CSSC[C@H](NC(=O)[C@H](CCCNC(=N)N)NC(=O)[C@H](CCCNC(=N)N)NC(=O)CC[C@H](NC(=O)CCCCCCCCCCCCCCCCCCC(=O)O)C(=O)O)C(=O)N[C@@H](CC(N)=O)C(=O)N[C@@H]([C@@H](C)O)C(=O)N[C@@H](C)C(=O)N[C@@H]([C@@H](C)O)C(=O)N1)[C@@H](C)O)C(C)C)C(=O)N[C@@H](CC(C)C)C(=O)N1CCC[C@H]1C(=O)N1CCC[C@H]1C(=O)N[C@H](C(=O)N[C@@H](CC(N)=O)C(=O)N[C@H](C(=O)NCC(=O)N[C@@H](CO)C(=O)N[C@@H](CC(N)=O)C(=O)N[C@H](C(=O)N[C@@H](Cc1ccc(O)cc1)C(N)=O)[C@@H](C)O)C(C)C)[C@@H](C)O [Example 47, N-alpha-[(S)-4-carboxy-4-(19-carboxynonadecanoylamino)butyryl]-Arg-[Arg1]-pramlintide (1-37)] ({C20 diacid-γGlu}-RRCNTATCATQRLANFLVHSSNNFGPILPPTNVGSNTY-NH2; disulfide 3-8; C-terminus assumed)	10.00	
CC[C@H](C)[C@H](NC(=O)[C@@H]1CCCN1C(=O)CNC(=O)[C@H](Cc1ccccc1)NC(=O)[C@H](CC(N)=O)NC(=O)[C@H](CC(N)=O)NC(=O)[C@H](CO)NC(=O)[C@H](CO)NC(=O)[C@H](Cc1c[nH]cn1)NC(=O)[C@@H](NC(=O)[C@H](CC(C)C)NC(=O)[C@H](Cc1ccccc1)NC(=O)[C@H](CC(N)=O)NC(=O)[C@H](C)NC(=O)[C@H](CC(C)C)NC(=O)[C@H](CCCNC(=N)N)NC(=O)[C@H](CCC(N)=O)NC(=O)[C@@H](NC(=O)[C@H](C)NC(=O)[C@@H]1CSSC[C@H](NC(=O)[C@H](CCCCN)NC(=O)[C@H](CCCNC(=N)N)NC(=O)[C@H](CCCCN)NC(=O)[C@H](CCC(=O)O)NC(=O)CCCCCCCCCCCCCCCCCCC(=O)O)C(=O)N[C@@H](CC(N)=O)C(=O)N[C@@H]([C@@H](C)O)C(=O)N[C@@H](C)C(=O)N[C@@H]([C@@H](C)O)C(=O)N1)[C@@H](C)O)C(C)C)C(=O)N[C@@H](CC(C)C)C(=O)N1CCC[C@H]1C(=O)N1CCC[C@H]1C(=O)N[C@H](C(=O)N[C@@H](CC(N)=O)C(=O)N[C@H](C(=O)NCC(=O)N[C@@H](CO)C(=O)N[C@@H](CC(N)=O)C(=O)N[C@H](C(=O)N[C@@H](Cc1ccc(O)cc1)C(N)=O)[C@@H](C)O)C(C)C)[C@@H](C)O [Example 50, N-alpha-(19-carboxynonadecanoyl)-Glu-Lys-Arg-pramlintide (1-37)] ({C20 diacid}-EKRKCNTATCATQRLANFLVHSSNNFGPILPPTNVGSNTY-NH2; disulfide 5-10)	10.10	
CC[C@H](C)[C@H](NC(=O)[C@@H]1CCCN1C(=O)CNC(=O)[C@H](Cc1ccccc1)NC(=O)[C@H](CC(N)=O)NC(=O)[C@H](CC(N)=O)NC(=O)[C@H](CO)NC(=O)[C@H](CO)NC(=O)[C@H](Cc1c[nH]cn1)NC(=O)[C@@H](NC(=O)[C@H](CC(C)C)NC(=O)[C@H](Cc1ccccc1)NC(=O)[C@H](CC(N)=O)NC(=O)[C@H](C)NC(=O)[C@H](CC(C)C)NC(=O)[C@H](CCCNC(=N)N)NC(=O)[C@H](CCC(N)=O)NC(=O)[C@@H](NC(=O)[C@H](C)NC(=O)[C@@H]1CSSC[C@H](NC(=O)[C@@H](N)CCCCN)C(=O)N[C@@H](CCCCNC(=O)COCCOCCNC(=O)CCCS(=O)(=O)NC(=O)CCCCCCCCCCCCCCCc2nnn[nH]2)C(=O)N[C@@H]([C@@H](C)O)C(=O)N[C@@H](C)C(=O)N[C@@H]([C@@H](C)O)C(=O)N1)[C@@H](C)O)C(C)C)C(=O)N[C@@H](CC(C)C)C(=O)N1CCC[C@H]1C(=O)N1CCC[C@H]1C(=O)N[C@H](C(=O)N[C@@H](CC(N)=O)C(=O)N[C@H](C(=O)NCC(=O)N[C@@H](CO)C(=O)N[C@@H](CC(N)=O)C(=O)N[C@H](C(=O)N[C@@H](Cc1ccc(O)cc1)C(N)=O)[C@@H](C)O)C(C)C)[C@@H](C)O [Example 30, N-epsilon3-[2-(2-{2-[4-(16-1H-tetrazol-5-yl-hexadecanoylsulfamoyl)butyrylamino]ethoxy}ethoxy)acetyl]-[Lys3]pramlintide (1-37)] (H-KCK([AEEA-X1])TATCATQRLANFLVHSSNNFGPILPPTNVGSNTY-NH2; disulfide 2-7; N-terminus and C-terminus assumed)	10.00	
CC[C@H](C)[C@H](NC(=O)[C@@H]1CCCN1C(=O)CNC(=O)[C@H](Cc1ccccc1)NC(=O)[C@H](CC(N)=O)NC(=O)[C@H](CC(N)=O)NC(=O)[C@H](CO)NC(=O)[C@H](CO)NC(=O)[C@H](Cc1c[nH]cn1)NC(=O)[C@@H](NC(=O)[C@H](CC(C)C)NC(=O)[C@H](Cc1ccccc1)NC(=O)[C@H](CC(N)=O)NC(=O)[C@H](C)NC(=O)[C@H](CC(C)C)NC(=O)[C@H](CCCNC(=N)N)NC(=O)[C@H](CCC(N)=O)NC(=O)[C@@H](NC(=O)[C@H](C)NC(=O)[C@@H]1CSSC[C@H](N)C(=O)N[C@@H](CCCCNC(=O)CC[C@H](NC(=O)CCCS(=O)(=O)NC(=O)CCCCCCCCCCCCCCCc2nnn[nH]2)C(=O)O)C(=O)N[C@@H]([C@@H](C)O)C(=O)N[C@@H](C)C(=O)N[C@@H]([C@@H](C)O)C(=O)N1)[C@@H](C)O)C(C)C)C(=O)N[C@@H](CC(C)C)C(=O)N1CCC[C@H]1C(=O)N1CCC[C@H]1C(=O)N[C@H](C(=O)N[C@@H](CC(N)=O)C(=O)N[C@H](C(=O)NCC(=O)N[C@@H](CO)C(=O)N[C@@H](CC(N)=O)C(=O)N[C@H](C(=O)N[C@@H](Cc1ccc(O)cc1)C(N)=O)[C@@H](C)O)C(C)C)[C@@H](C)O [Example 42, N-epsilon3-{4-carboxy-4-[4-(16-1H-tetrazol-5-ylhexadecanoylsulfamoyl)butyrylamino]butyryl}-[Lys3]-pramlintide (2-37)] (H-CK([γGlu-X1])TATCATQRLANFLVHSSNNFGPILPPTNVGSNTY-NH2; disulfide 1-6; N-terminus and C-terminus assumed)		10.40
